Assay results taken from patent publication US9023853B2, “Janus kinase 2 (JAK2) inhibitor for the treatment of lupus” (Cephalon, Inc., priority 2010, dated 2015).

Legend:
Type in all cases: in vivo, mouse
CXCL10/IP-10 = assay: Serum CXCL10/IP-10 in NZM mice
Procedure: (§1) For the processing of serum samples for cytokine analysis, frozen plasma at −80° C. was thawed on ice, vortexed, and centrifuged for 10 minutes to remove debris and aggregates. A total of 25-50 μL of serum was used for Luminex® assays following the manufacturer's instructions. Ten different mouse cytokines were measured using the mouse cytokine 10-plex bead kit (Invitrogen, Carlsbad, Calif., no. LMC0001). Briefly, filter plates (Millipore, Billerica, Mass., no. MAIPSWU10), were pre-wet with 200 μL of wash solution (kit component) and 25 μL of beads were added per well. […]
(§2) Age mated, female, NZM or NZW/LacJ, mice were matured for the study of lupus nephritis for a total of 7 months or 210 days at which time urine was collected for proteinuria detection. Mice with 0.5-1.0 mg/ml of urine protein as determined by an optical density-based total protein precipitation assay and cross-checked for 30-300 mg/dl of protein as determined by a stick assay were considered proteinuria positive and selected for study entry. […] End-stage lupus nephritis was evaluated by histopathology and scored by a board certified pathologist for the assessment of total renal damage in diseased animals using the scoring method described by Smith et al (Smith, Dong et al. 2007). […]

CCL3/MIP-1α = assay: Serum CCL3/MIP-1α in NZM mice
Procedure: as §1, §2

NZM mice = assay: Splenomegaly (EOS spleen mass) in NZM mice
Procedure: Age mated, female, NZM or NZW/LacJ, mice were matured for the study of lupus nephritis for a total of 7 months or 210 days at which time urine was collected for proteinuria detection. Mice with 0.5-1.0 mg/ml of urine protein as determined by an optical density-based total protein precipitation assay and cross-checked for 30-300 mg/dl of protein as determined by a stick assay were considered proteinuria positive and selected for study entry. Groups were normalized to contain a Gaussian distribution of proteinuria positive animals (i.e., ⅓ low proteinuria, ⅓ medium, ⅓ high) then randomized between groups before ear marking and taking baseline measures including urine and serum collections. A total of five mice from the total population were randomly selected for baseline kidney histology evaluation. Treatments and tests for each group are as described in FIG. 12. Briefly, with a minimum of 10 mice per group, COMPOUND A was administered at 100 mg/kg or 55 mg/kg, both twice a day and orally. […] Vehicle included 3% DMSO, 10% Solutol and 87% PBS. […] End-stage lupus nephritis was evaluated by histopathology and scored by a board certified pathologist for the assessment of total renal damage in diseased animals using the scoring method described by Smith et al (Smith, Dong et al. 2007). […] Day-98 or “end of treatment/study” represents 310 days of age for the NZM animals.

IL-17A = assay: Serum IL-17A in NZM mice
Procedure: as §1, §2

[1] = system: c-telopeptide collagen type I cross-linker; CTx; assay: Osteoclast activity: serum bone resorption biomarker CTx in NZM mice
Excerpt: Vehicle included 3% DMSO, 10% Solutol and 87% PBS.

CN1CCN(c2cccc(Nc3nc4c(-c5ccc(S(C)(=O)=O)cc5)cccn4n3)c2)CC1 [COMPOUND A, [8-(4-methanesulfonyl-phenyl)-[1,2,4]triazolo[1,5-a]pyridin-2-yl]-[3-(4-methyl-piperazin-1-yl)-phenyl]-amine]
serum CXCL10/IP-10 decrease compared to vehicle (CXCL10/IP-10; 55 mg/kg): 47.3%
serum CXCL10/IP-10 decrease compared to vehicle (CXCL10/IP-10; 100 mg/kg): 80.0%
serum CCL3/MIP-1α decrease compared to vehicle (CCL3/MIP-1α; 55 mg/kg): 94.5%
serum CCL3/MIP-1α decrease compared to vehicle (CCL3/MIP-1α; 100 mg/kg): 94.5%
total EOS spleen mass decrease compared to vehicle (NZM mice; 55 mg/kg): 71.8%
total EOS spleen mass decrease compared to vehicle (NZM mice; 100 mg/kg): 73.5%
serum IL-17A decrease compared to vehicle (IL-17A; 55 mg/kg): 79.1%
serum IL-17A decrease compared to vehicle (IL-17A; 100 mg/kg): 86.2%
serum CTx decrease vs. vehicle ([1]; 55 mg/kg): 37.8%
serum CTx decrease vs. vehicle ([1]; 100 mg/kg): 46.7%
